Reference: US10624968B2, “Compounds for treating cancer” (Bicycle Therapeutics Limited, priority 2017, dated 2020)
Starred links: 1 amine or outer side, 2 acyl side, 3 side chain; linkers in the order of their positions; H or OH if unused. Positions of bridges follow the written chain, without caps; N, C: chain ends. Non-standard residues stand in square brackets, D forms with d. Residues, ends and D or L forms follow the SMILES beside them. ξ: configuration not given here. *: point of attachment. X3 = COc1cc2cc(c1Cl)N(C)C(=O)C[C@H](OC(=O)[C@H](C)N(C)C(=O)CCSCc1ccc(N*)cc1)[C@]1(C)O[C@H]1[C@H](C)[C@@H]1C[C@@](O)(NC(=O)O1)[C@H](OC)/C=C/C=C(\C)C2; 1Nal = N[C@@H](Cc1cccc2ccccc12)C(=O)O; TBMB = c1c(C[*:1])cc(C[*:3])cc1C[*:2]; Glutaryl = O=C(CCCC(=O)[*:2])[*:1]; ξ1Nal = NC(Cc1cccc2ccccc12)C(=O)O; Cit = NC(=O)NCCC[C@H](N)C(=O)O; Tle = CC(C)(C)[C@H](N)C(=O)O; ξY = NC(Cc1ccc(O)cc1)C(=O)O; ξTle = CC(C)(C)C(N)C(=O)O; ξF = NC(Cc1ccccc1)C(=O)O; ξE = NC(CCC(=O)O)C(=O)O; ξD = NC(CC(=O)O)C(=O)O; ξN = NC(=O)CC(N)C(=O)O; ξC = NC(CS)C(=O)O; βAla = NCCC(=O)O; ξA = CC(N)C(=O)O; Sar = CNCC(=O)O

Key:
[1] = Tolerability (body weight) in LU-01-0486 NSCLC PDX model; format: in vivo, mouse; details: dose not given; humane sacrifice of animals at day 24
Protocol: (§1) All the procedures related to animal handling, care and the treatment in the study were performed following the guidance of the Association for Assessment and Accreditation of Laboratory Animal Care (AAALAC). At the time of routine monitoring, the animals were daily checked for any effects of tumor growth and treatments on normal behavior such as mobility, food and water consumption (by looking only), body weight gain/loss (body weights were measured twice weekly), eye/hair matting and any other abnormal effect as stated in the protocol. Death and observed clinical signs were recorded on the basis of the numbers of animals within each subset.

[2] = system: LU-01-0486 PDX; experiment: Efficacy in MT1-MMP low-expressing LU-01-0486 NSCLC PDX model; format: in vivo, mouse; details: dose not given
Protocol: The objective of this study was to evaluate the in vivo anti-tumor efficacy of I-1a in the treatment of MT1-MMP low-expressing LU-01-0486 PDX model in female Balb/C nude mice
Each mouse was inoculated subcutaneously at the right flank with LU-01-0486 of tumor fragment (30 mm^3) for tumor development. The treatments was started when the average tumor volume reaches 164 mm^3.
The major endpoint was to see if the tumor growth could be delayed or mice could be cured. Tumor size was measured two times weekly in two dimensions using a caliper, and the volume was expressed in mm^3 using the formula: V=0.5 a×b^2 where a and b are the long and short diameters of the tumor, respectively. […]
TGI was calculated for each group using the formula: TGI (%)=[1−(Ti−T0)/(Vi−V0)]×100; Ti is the average tumor volume of a treatment group on a given day, T0 is the average tumor volume of the treatment group on the day of treatment start, Vi is the average tumor volume of the vehicle control group on the same day with Ti, and V0 is the average tumor volume of the vehicle group on the day of treatment start.
A one-way ANOVA was performed to compare tumor volume among groups, and when a significant F-statistics (a ratio of treatment variance to the error variance) was obtained, comparisons between groups were carried out with Games-Howell test. All data were analyzed using Prism. […]

[3] = Mortality, morbidity and body weight in HT1080 xenograft study (Example 13); format: in vivo, mouse; details: 10 mg/kg biw
Protocol: as §1, with “every day),” for “twice weekly),”
Body weight was monitored regularly as an indirect measure of toxicity.

[4] = system: MT1-positive tumor xenografts; details: mouse, in vivo, iv

SMILES: CC(=O)O[C@@]12CO[C@@H]1C[C@H](O)[C@@]1(C)C(=O)[C@H](O)C3=C(C)[C@@H](OC(=O)[C@H](O)[C@@H](NC(=O)OC(C)(C)C)c4ccccc4)C[C@@](O)([C@@H](OC(=O)c4ccccc4)[C@H]21)C3(C)C [Docetaxel]
- effect on body weight (in words) [1]: severe weight loss
- inhibition of tumor growth (in words) [2]: significant inhibition of tumor growth

SMILES: COc1cc2cc(c1Cl)N(C)C(=O)C[C@H](OC(=O)[C@H](C)N(C)C(=O)CCSCc1ccc(NC(=O)[C@H](CCCNC(N)=O)NC(=O)[C@@H](NC(=O)CCCC(=O)NCCC(=O)N(C)CC(=O)N(C)CC(=O)N(C)CC(=O)N(C)CC(=O)N(C)CC(=O)N(C)CC(=O)N(C)CC(=O)N(C)CC(=O)N(C)CC(=O)N(C)CC(=O)NC(C)C(=O)NC3CSCc4cc5cc(c4)CSCC(NC(=O)C(C)NC(=O)C(Cc4cccc6ccccc46)NC(=O)C(CCC(=O)O)NC(=O)C(CC(N)=O)NC(=O)C(C)NC3=O)C(=O)NC(C)C(=O)NC(CC(=O)O)C(=O)NC(Cc3ccccc3)C(=O)NC(Cc3ccc(O)cc3)C(=O)NC(CC(=O)O)C(=O)NC(C(C)(C)C)C(=O)NC(C(N)=O)CSC5)C(C)C)cc1)[C@]1(C)O[C@H]1[C@H](C)[C@@H]1C[C@@](O)(NC(=O)O1)[C@H](OC)/C=C/C=C(\C)C2 (stereo partly drawn) [Compound I-7] ({X3-Cit-Val-Glutaryl-βAla}-[Sar][Sar][Sar][Sar][Sar][Sar][Sar][Sar][Sar][Sar][ξA][ξC][ξA][ξN][ξE][ξ1Nal][ξA][ξC][ξA][ξD][ξF][ξY][ξD][ξTle][ξC]-NH2; linker 12-18-25 via TBMB)
- mice died during the dosing period [3]: 2/3

SMILES: C[C@H](NC(=O)CN(C)C(=O)CN(C)C(=O)CN(C)C(=O)CN(C)C(=O)CN(C)C(=O)CN(C)C(=O)CN(C)C(=O)CN(C)C(=O)CN(C)C(=O)CN(C)C(=O)CCN)C(=O)N[C@H]1CSCc2cc3cc(c2)CSC[C@H](NC(=O)[C@@H](C)NC(=O)[C@H](Cc2cccc4ccccc24)NC(=O)[C@H](CCC(=O)O)NC(=O)[C@H](CC(N)=O)NC(=O)[C@@H](C)NC1=O)C(=O)N[C@@H](CCC(=O)O)C(=O)N[C@@H](CC(=O)O)C(=O)N[C@@H](Cc1ccccc1)C(=O)N[C@@H](Cc1ccc(O)cc1)C(=O)N[C@@H](CC(=O)O)C(=O)N[C@@H](C(C)(C)C)C(=O)N[C@H](C(N)=O)CSC3 [^177Lu-loaded N241, metal not drawn] (H-[βAla][Sar][Sar][Sar][Sar][Sar][Sar][Sar][Sar][Sar][Sar]AC[dA]NE[1Nal][dA]CEDFYD[Tle]C-NH2; linker 13-19-26 via TBMB; N-terminus and C-terminus assumed)
- tumor localization (in words) [4]: rapid tumor localization
